From patent publication US8604073B2, “Antimicrobial composition” (Ethicon, Inc., priority 2006, dated 2013)

What was measured:
MRSA-002 = experiment: Viable plate count, resistant bacteria, protocol of Example 1
Description: (§1) A portion of 0.05 ml of each dilution was added to 0.95 ml of bacterial culture (trypticase soy broth containing 10^6 CFU/ml).
MRSA used are MRSA-002 and MRSA-006.

MRSA-006 = experiment: as above
Description: as §1
MRSA used are MRSA-002 and MRSA-006.

MRSE 700563 [1] = experiment: as above
Description: as §1
MRSA used are MRSA-002 and MRSA-006.

MRSE 51625 = experiment: as above
Description: as §1
MRSA used are MRSA-002 and MRSA-006.

MRSA 006 = experiment: Zone of inhibition of treated Nu-Gel hydrogel squares on inoculated TSA agar
Description: (§2) The zone of inhibition, which is defined as the average distance in millimeter from four edges of the square and four edges of the clear zone around the square, was measured.

MRSE 700563 [2] = experiment: as above
Description: as §2

Row | Compound | CFU/ml MRSA-002 (MRSA-002; 100 ppm) | CFU/ml MRSA-006 (MRSA-006; 100 ppm) | CFU/ml MRSE 700563 (MRSE 700563 [1]; 100 ppm) | CFU/ml MRSE 51625 (MRSE 51625; 100 ppm) | Zone of inhibition (mm) MRSA 006 (MRSA 006; 60 ug/cm^2, 48 hours at 37° C.) | Zone of inhibition (mm) MRSE 700563 (MRSE 700563 [2]; 60 ug/cm^2, 48 hours at 37° C.) | CFU/ml MRSA-002 (MRSA-002; 5 ppm) | CFU/ml MRSA-006 (MRSA-006; 5 ppm) | CFU/ml MRSE 700563 (MRSE 700563 [1]; 5 ppm) | CFU/ml MRSE 51625 (MRSE 51625; 5 ppm) | Zone of inhibition (mm) MRSA 006 (MRSA 006; 6 ug/cm^2, 48 hours at 37° C.) | Zone of inhibition (mm) MRSE 700563 (MRSE 700563 [2]; 6 ug/cm^2, 48 hours at 37° C.)
1 | Cc1nnc(SCC2=C(C(=O)O)N3C(=O)[C@@H](NC(=O)Cn4cnnn4)[C@H]3SC2)s1 [Cefazolin (CF), Cefazolin] | 1.1 × 10^9 CFU/ml | 1.4 × 10^5 CFU/ml | 1.5 × 10^8 CFU/ml | 1.5 × 10^6 CFU/ml | 0 mm | 0 mm | – | – | – | – | – | –
2 | CCCCCCCCCCCC(=O)N[C@@H](CCCN=C(N)N)C(=O)OCC.Cl [LAE, ethyl ester of the lauramide of the arginine monohydrochloride] | – | – | – | – | – | – | 5.0 × 10^6 CFU/ml | 6.2 × 10^8 CFU/ml | 4.0 × 10^8 CFU/ml | 1.2 × 10^9 CFU/ml | 0 mm | 0 mm
3 | Polymixin B [Polymixin B (PY)] | 1.2 × 10^9 CFU/ml | 1.2 × 10^9 CFU/ml | 1.2 × 10^9 CFU/ml | 6.2 × 10^8 CFU/ml | 0 mm | 0 mm | – | – | – | – | – | –
